According to paper PMC2137757 (The Journal of Experimental Medicine, 1964):
Like-named read-outs stand apart in the source and are kept apart here.

How the values were obtained:
[1] = system: adrenal cortex; assay: Induced protection of adrenal against 7,12-DMBA; format: in vivo, rat; conditions: for Protection of adrenal after repeated doses: 15 mg fed daily for 5 days before 7,12-DMBA
[2] = system: menadione reductase (EC 1.6.5.2); assay: Induction of menadione reductase in tissues; format: in vivo, rat; conditions: for Hepatic menadione reductase: measured at 48 hours; for Induction of menadione reductase in liver: single feeding
[3] = system: lactic dehydrogenase; assay: Lactic dehydrogenase level in liver; format: in vivo, rat; conditions: 3-MC 2.5 mg intravenous; Fig. 1
[4] = system: adrenal cortex; conditions: cited from earlier work; for Protection of adrenal against 7,12-DMBA: single feeding
[5] = Solubility of hydrocarbons in sesame oil; conditions: room temperature; approximately
[6] = system: adrenal cortex; assay: Adrenal damage; conditions: for Adrenal damage: feeding; for Pathological findings in adrenals: without hydrocarbons
[7] = system: deoxyribonucleic acid of adrenal; format: in vivo, rat; conditions: Table VII; ethionine 25 mg i.p. at -24 hrs alone
[8] = system: adrenal cortex; conditions: far larger doses than of 7,12-DMBA required; cited from earlier work
[9] = 3-MC 2.5 mg i.v. on day 0 and day 1, tissues day 2, eight rats
[10] = rats bearing mammary cancers, fed 3-MC 10 mg, day 1, vs rats without 3-MC
[11] = polycyclic aromatic hydrocarbons

Question: For `CC(C)(O)C(Cl)(Cl)Cl` [chloretone, 1,1,1-tricbloro-2-methyl-2-propanol], which “Rats with protection of adrenals” value ([1]; 15 mg fed daily for 5 days, group of 20 rats) is on record?
Answer: Its value is 7.

Question: What does the source list for `Cc1ccc2cc3c(ccc4ccccc43)c3c2c1CC3` [3-MC, 3-Methylcholanthrene]?
Answer: Adrenal protection ([1]; 3-MC 0.5 mg on day -1 by feeding or injection in muscle or in vein): complete adrenal protection; Duration of adrenal protection ([1]; 3-MC 1 mg i.v., apoplexy when 7,12-DMBA injected on day 3): 2 days; Duration of adrenal protection ([1]; 3-MC 5 mg i.v., apoplexy when 7,12-DMBA injected on day 8): 6 days; Adrenal status ([1]; 3-MC 2, 5, or 10 mg i.v. in the same emulsion with 7,12-DMBA 5 mg (simultaneous)): adrenal apoplexy in all of the animals; Duration of adrenal protection ([1]; 3-MC small dose (2 mg) i.v., Discussion): 2 days; Adrenal status ([1]; Table IV, 3-MC 0.5 mg i.v. at -1 hr before 7,12-DMBA 5 mg i.v.): +; Adrenal status ([1]; Table IV, 3-MC 0.5 mg i.v. at -2 hrs before 7,12-DMBA 5 mg i.v.): +; Adrenal status ([1]; Table IV, 3-MC 0.5 mg i.v. at -3 hrs before 7,12-DMBA 5 mg i.v.): 0; Adrenal status ([1]; Table IV, 3-MC 0.5 mg i.v. at -4 hrs before 7,12-DMBA 5 mg i.v.): 0; Adrenal status ([1]; Table IV, 3-MC 1 mg i.v. at -1 hr before 7,12-DMBA 5 mg i.v.): +; Adrenal status ([1]; Table IV, 3-MC 1 mg i.v. at -2 hrs before 7,12-DMBA 5 mg i.v.): +; Adrenal status ([1]; Table IV, 3-MC 1 mg i.v. at -3 hrs before 7,12-DMBA 5 mg i.v.): 0; Adrenal status ([1]; Table IV, 3-MC 1 mg i.v. at -4 hrs before 7,12-DMBA 5 mg i.v.): 0; Adrenal status ([1]; Table IV, 3-MC 2 mg i.v. at -1 hr before 7,12-DMBA 5 mg i.v.): +; Adrenal status ([1]; Table IV, 3-MC 2 mg i.v. at -2 hrs before 7,12-DMBA 5 mg i.v.): +; Adrenal status ([1]; Table IV, 3-MC 2 mg i.v. at -3 hrs before 7,12-DMBA 5 mg i.v.): 0; Adrenal status ([1]; Table IV, 3-MC 2 mg i.v. at -4 hrs before 7,12-DMBA 5 mg i.v.): 0; Adrenal status ([1]; Table IV, 3-MC 2.5 mg i.v. at -1 hr before 7,12-DMBA 5 mg i.v.): +; Adrenal status ([1]; Table IV, 3-MC 2.5 mg i.v. at -2 hrs before 7,12-DMBA 5 mg i.v.): +; Adrenal status ([1]; Table IV, 3-MC 2.5 mg i.v. at -3 hrs before 7,12-DMBA 5 mg i.v.): +; Adrenal status ([1]; Table IV, 3-MC 2.5 mg i.v. at -4 hrs before 7,12-DMBA 5 mg i.v.): 0; Adrenal status ([1]; Table IV, 3-MC 5 mg i.v. at -1 hr before 7,12-DMBA 5 mg i.v.): +; Adrenal status ([1]; Table IV, 3-MC 5 mg i.v. at -2 hrs before 7,12-DMBA 5 mg i.v.): +; Adrenal status ([1]; Table IV, 3-MC 5 mg i.v. at -3 hrs before 7,12-DMBA 5 mg i.v.): +; Adrenal status ([1]; Table IV, 3-MC 5 mg i.v. at -4 hrs before 7,12-DMBA 5 mg i.v.): +; Adrenal status ([1]; Table IV, 3-MC 10 mg i.v. at -1 hr before 7,12-DMBA 5 mg i.v.): +; Adrenal status ([1]; Table IV, 3-MC 10 mg i.v. at -2 hrs before 7,12-DMBA 5 mg i.v.): +; Adrenal status ([1]; Table IV, 3-MC 10 mg i.v. at -3 hrs before 7,12-DMBA 5 mg i.v.): +; Adrenal status ([1]; Table IV, 3-MC 10 mg i.v. at -4 hrs before 7,12-DMBA 5 mg i.v.): +; Hepatic menadione reductase ([2]; 3-MC 2.5 mg i.v. at 0 hours, lipide at 24 hours, Fig. 5): 276 per cent of controls; Increase of menadione reductase in adrenal with respect to untreated controls [2, 9]: 159 per cent; Increase of menadione reductase in lung with respect to untreated controls [2, 9]: 164 per cent; Time of significant rise in menadione reductase in liver ([2]; 3-MC 2.5 mg i.v. only, Fig. 4): 4 h; Time of first rise of menadione reductase in liver ([2]; 3-MC 2.5 mg intravenous, Fig. 1): 3 h; Time of first increase of menadione reductase ([2]; 3-MC large dose (5 mg) i.v., Discussion): 4 h; Increase of menadione reductase in liver [2, 10]: +224 per cent; Increase of menadione reductase in mammary cancer [2, 10]: +275 per cent; Increase of menadione reductase in mammary gland [2, 10]: +214 per cent; Hepatic menadione reductase ([2]; sequence 3-MC 2.5 mg + 3-MC 2.5 mg i.v. at 0 and 24 hours): 387 per cent of controls; Increase of menadione reductase concentration in liver ([2]; single feeding of 3-MC 0.5 mg, 24 hours, Fig. 2): twofold; Increase of menadione reductase level in lung ([2]; single feeding of 3-MC 1 mg, 24 hours, Fig. 2): 150 per cent; Change in concentration of lactic dehydrogenase in liver [3]: no significantchange; Prevention of adrenal injury by 7,12-DMBA [4]: prevented adrenal injury; Solubility w/v in sesame oil [5]: ~1.25 per cent

Question: For `c1ccc2cc3c(ccc4ccccc43)cc2c1` [Benz[a]anthracene, benz[a]anthracene], which “Protection of adrenal against 7,12-DMBA” value [4, 11] is on record?
Answer: The value was “protection of this sort was afforded”.

Question: Which Adrenal protection ([1]; feeding 10 mg) does the source give for `CC12OOC(C)(c3ccccc31)c1c2ccc2ccccc12` (centres unmarked) [transannular peroxide of 7,12-DMBA] here?
Answer: Its Adrenal protection is “complete adre- nal protection”.

Question: What about the “Animals with protection of adrenals” value ([1]; single feeding of 2 mg, group of 5 rats) of the same molecule?
Answer: Its value is 3.

Question: And the Adrenal damage ([6]; 50 mg)?
Answer: The Adrenal damage was “did not cause injury to the adrenals”.

Question: With `CCC1(C2=CCCCC2)C(=O)NC(=O)NC1=O` [cyclobarbital, 5-(1-cycloohexanyl)-5-ethylbarbituric acid] as the molecule, how does the “Protection of adrenal after repeated doses” value [1] read?
Answer: Its value is “did not induce pro- tection”.

Question: Which “Protection of adrenal against 7,12-DMBA” value ([4]; aromatic amines) does the source give for `Nc1ccc2c(c1)Cc1ccccc1-2` [2-aminofluorene] here?
Answer: The value was “protection of this sort was afforded”.

Question: Which “Prevention of adrenal damage from 7,12-DMBA” value ([4]; preliminary treatment of rats) does the source give for `CC(C)(C(=O)c1cccnc1)c1cccnc1` [2-methyl-I, 2-b/s(3-pyr-idyl)-1-propanone] here?
Answer: The value was “prevented adrenal damage”.

Question: With `CCSCC[C@H](N)C(=O)O` [ethionine] as the molecule, how does the Adrenals at necropsy ([1]; 3 doses of ethionine 25 mg at +1 minute, +4 hours, +8 hours after 3-MC 10 mg, 7,12-DMBA 5 mg) read?
Answer: Its Adrenals at necropsy is “eliminated the protective effect of 3-MC”.

Question: And the Adrenals at necropsy ([1]; ethionine 25 mg 4 or 8 hours after 3-MC 2 mg, 7,12-DMBA 5 mg 24 hours later)?
Answer: The Adrenals at necropsy was “yel- low adrenals”.

Question: What about the “Effect on 7,12-DMBA-produced adrenal apoplexy” value ([1]; ethionine 25 mg or 50 mg 0.5 hours before 7,12-DMBA 5 mg, no protector) of the same molecule?
Answer: Its value is “adrenal apoplexy was found at necropsy in all of the rats”.

Question: And the Adrenals at necropsy ([1]; single doses of ethionine 25 mg or 50 mg, 1 minute to 1 hour after 3-MC 10 mg, 7,12-DMBA 5 mg)?
Answer: Its Adrenals at necropsy is “yellow adrenals”.

Question: And the “Elevation of menadione reductase in liver at 12 hours vs rats without ethionine” value ([2]; 3-MC 2.5 mg i.v. plus ethionine 25 mg i.p.)?
Answer: Its value is “significantly lower”.

Question: What about the “Time elevation of menadione reductase in liver first detected” value ([2]; 3-MC 2.5 mg i.v. plus ethionine 25 mg i.p. just after, Fig. 4) of the same molecule?
Answer: Its value is 8 h.

Question: What about the “Tritium content of adrenal” value [7] of the same molecule?
Answer: The value was 0.122 ~clgm.

Question: And the “Tritium content of adrenal, per cent of controls” value [7]?
Answer: Its value is 92 per cent.

Question: What about the “Pathological findings in adrenals” value ([6]; injection of 25 to 75 mg) of the same molecule?
Answer: The value was “No pathological findings”.

Question: For `CCC1(CC)C(=O)NC(=O)NC1=O` [barbital], which “Protection of adrenal after repeated doses” value [1] is on record?
Answer: The value was “did not induce pro- tection”.

Question: With `Cc1c2ccccc2cc2c1cc(F)c1ccccc12` [5-Fluoro-7-methyl BaA] as the molecule, how does the Adrenals with hemorrhage ([1]; Table III, dose 1 mg fed once day -1, 7,12-DMBA 5 mg i.v. day 0, adrenals day 3) read?
Answer: Its Adrenals with hemorrhage is 0/6.

Question: Which “Adrenal necrosis (character)” value [8] does the source give for `Clc1ccc(C(c2ccccc2Cl)C(Cl)Cl)cc1` (centres unmarked) [o,p'-DDD, 2,2-bis(2-chlorophenyl,4-chlorophenyl)-l, 1-dichloroethane] here?
Answer: The value was “focal and patchy”.

Question: With `Nc1ccc2ccccc2c1` [2-naphthylamine] as the molecule, how does the “Protection of adrenal against 7,12-DMBA” value ([4]; aromatic amines) read?
Answer: Its value is “protection of this sort was afforded”.

Question: Which “Induction of menadione reductase in liver” value ([2]; 24 hours) does the source give for `c1ccc2c(c1)ccc1c3ccccc3ccc21` [Chrysene] here?
Answer: The value was “induced a considerable in- crease”.

Question: With `c1ccc2cc3ccccc3cc2c1` [anthracene] as the molecule, how does the “Protection of adrenal against 7,12-DMBA” value [4, 11] read?
Answer: Its value is “protection of this sort was afforded”.

Question: For `CSCC[C@H](N)C(=O)O` [methionine], which “Influence on aromatic protection against 7,12-DMBA” value ([1]; methionine 50 mg as sole amino acid 1 hour before or 1 hour after 3-MC 2 mg) is on record?
Answer: Its value is “no influence on aromatic protection”.

Question: What about the “Pathological findings in adrenals” value ([6]; injection of 50 mg) of the same molecule?
Answer: The value was “No pathological findings”.

Question: Which Adrenal damage ([6]; 30 mg) does the source give for `Cc1cccc2ccc3cc4ccccc4c(C)c3c12` [1,12-DMBA] here?
Answer: The Adrenal damage was “adrenal damage did not occur”.

Question: With `Cc1ccc2cc3c(ccc4cc(C)ccc43)cc2c1` [3,9-Dimethylbenz[alanthracene] as the molecule, how does the Adrenal damage ([6]; 30 mg) read?
Answer: The Adrenal damage was “adrenal damage did not occur”.

Question: With `Cc1cccc2cc3c(cc12)c(C)cc1ccccc13` [6,8-Dimethylbenz[a]anthracene] as the molecule, how does the Adrenal damage ([6]; 30 mg) read?
Answer: The Adrenal damage was “adrenal damage did not occur”.

Question: With `c1cc2ccc3cccc4ccc(c1)c2c34` [Pyrene] as the molecule, how does the “Induction of menadione reductase in liver” value ([2]; 24 hours) read?
Answer: The value was “failed to induce this enzyme”.

Question: With `c1ccc2c(c1)ccc1ccccc12` [phenanthrene] as the molecule, how does the “Protection of adrenal against 7,12-DMBA” value [4, 11] read?
Answer: Its value is “protection of this sort was afforded”.

Question: Which “Induction of menadione reductase in liver” value ([2]; 24 hours) does the source give for `c1ccc2c(c1)cc1ccc3cccc4ccc2c1c34` [Benzo[a]pyrene, benzo[a]pyrene] here?
Answer: The value was “induced synthesis of the enzyme”.

Question: What about the “Protection of adrenal against 7,12-DMBA” value [4, 11] of the same molecule?
Answer: Its value is “protection of this sort was afforded”.

Question: Which “Protection of adrenal against 7,12-DMBA” value ([4]; aromatic amines) does the source give for `Nc1cc2c3ccccc3ccc2c2ccccc12` [6-Aminochrysene] here?
Answer: Its value is “protection of this sort was afforded”.
